Tested on: cataracts in rats
Assay: Prevention or retardation of cataracts in galactose-fed rats
Assay type: in vivo, rat
Settings: for % of Total Eyes, N (nuclear cataract) / % of Total Eyes, S (snowflake) / Number of Eyes Observed, + (vacuole) / Number of Eyes Observed, - (Normal) / Number of Eyes Observed, N (nuclear cataract) / Number of Eyes Observed, S (snowflake) / Number of Eyes Observed, ± / % of Total Eyes, + (vacuole) / % of Total Eyes, - (Normal): 30% galactose diet, A,C,E 0.0025%, B,D 0.01%
How it was run: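 Rats given test compound mixed into diet (by % of total feed weight; 0.01% designed to supply 20 mg/kg/day) ad libitum for thirty days after a two-day chow acclimatization, twelve animals per treatment. Eyes examined by handheld ophthalmoscope and/or penlight and each eye graded.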

Substance: dl-spiro-(6-methylthio-chroman-4,4'-imidazolidine)-2',5'-dione
- % of Total Eyes, N (nuclear cataract) (Study Day 14): 0%
- % of Total Eyes, S (snowflake) (Study Day 14): 58.4%
- Number of Eyes Observed, + (vacuole) (Study Day 14): 10 eyes
- Number of Eyes Observed, - (Normal) (Study Day 14): 0 eyes
- Number of Eyes Observed, N (nuclear cataract) (Study Day 14): 0 eyes
- Number of Eyes Observed, S (snowflake) (Study Day 14): 14 eyes
- Number of Eyes Observed, ± (Study Day 14): 0 eyes
- % of Total Eyes, + (vacuole) (Study Day 16): 37.5%
- % of Total Eyes, - (Normal) (Study Day 16): 0%
- % of Total Eyes, N (nuclear cataract) (Study Day 16): 0%
- % of Total Eyes, S (snowflake) (Study Day 16): 62.5%
- Number of Eyes Observed, + (vacuole) (Study Day 16): 9 eyes
- Number of Eyes Observed, - (Normal) (Study Day 16): 0 eyes
- Number of Eyes Observed, N (nuclear cataract) (Study Day 16): 0 eyes
- Number of Eyes Observed, S (snowflake) (Study Day 16): 15 eyes
- Number of Eyes Observed, ± (Study Day 16): 0 eyes
- % of Total Eyes, + (vacuole) (Study Day 18): 25.0%
- % of Total Eyes, - (Normal) (Study Day 18): 0%
- % of Total Eyes, N (nuclear cataract) (Study Day 18): 0%
- % of Total Eyes, S (snowflake) (Study Day 18): 75.0%
- Number of Eyes Observed, + (vacuole) (Study Day 18): 6 eyes
- Number of Eyes Observed, - (Normal) (Study Day 18): 0 eyes
- Number of Eyes Observed, N (nuclear cataract) (Study Day 18): 0 eyes
- Number of Eyes Observed, S (snowflake) (Study Day 18): 0 eyes
- Number of Eyes Observed, ± (Study Day 18): 0 eyes
- % of Total Eyes, + (vacuole) (Study Day 20): 20.8%
- % of Total Eyes, - (Normal) (Study Day 20): 0%
- % of Total Eyes, N (nuclear cataract) (Study Day 20): 0%
- % of Total Eyes, S (snowflake) (Study Day 20): 79.2%
- Number of Eyes Observed, + (vacuole) (Study Day 20): 5 eyes
- Number of Eyes Observed, - (Normal) (Study Day 20): 0 eyes
- Number of Eyes Observed, N (nuclear cataract) (Study Day 20): 0 eyes
- Number of Eyes Observed, S (snowflake) (Study Day 20): 19 eyes
- Number of Eyes Observed, ± (Study Day 20): 0 eyes
- % of Total Eyes, + (vacuole) (Study Day 22): 8.3%
- % of Total Eyes, - (Normal) (Study Day 22): 0%
- % of Total Eyes, N (nuclear cataract) (Study Day 22): 4.2%
- % of Total Eyes, S (snowflake) (Study Day 22): 87.5%
- Number of Eyes Observed, + (vacuole) (Study Day 22): 2 eyes
- Number of Eyes Observed, - (Normal) (Study Day 22): 0 eyes
- Number of Eyes Observed, N (nuclear cataract) (Study Day 22): 1 eyes
- Number of Eyes Observed, S (snowflake) (Study Day 22): 21 eyes
- Number of Eyes Observed, ± (Study Day 22): 0 eyes
- % of Total Eyes, + (vacuole) (Study Day 24): 4.2%
- % of Total Eyes, - (Normal) (Study Day 24): 0%
- % of Total Eyes, N (nuclear cataract) (Study Day 24): 4.2%
- % of Total Eyes, S (snowflake) (Study Day 24): 91.7%
- Number of Eyes Observed, + (vacuole) (Study Day 24): 1 eyes
- Number of Eyes Observed, - (Normal) (Study Day 24): 0 eyes
- Number of Eyes Observed, N (nuclear cataract) (Study Day 24): 1 eyes
- Number of Eyes Observed, S (snowflake) (Study Day 24): 22 eyes
- Number of Eyes Observed, ± (Study Day 24): 0 eyes
- % of Total Eyes, + (vacuole) (Study Day 26): 0%
- % of Total Eyes, - (Normal) (Study Day 26): 0%
- % of Total Eyes, N (nuclear cataract) (Study Day 26): 4.2%
- % of Total Eyes, S (snowflake) (Study Day 26): 95.8%
- Number of Eyes Observed, + (vacuole) (Study Day 26): 0 eyes
- Number of Eyes Observed, - (Normal) (Study Day 26): 0 eyes
- Number of Eyes Observed, N (nuclear cataract) (Study Day 26): 1 eyes
- Number of Eyes Observed, S (snowflake) (Study Day 26): 23 eyes
- Number of Eyes Observed, ± (Study Day 26): 0 eyes
- % of Total Eyes, + (vacuole) (Study Day 28): 0%
- % of Total Eyes, - (Normal) (Study Day 28): 0%
- % of Total Eyes, N (nuclear cataract) (Study Day 28): 12.5%
- % of Total Eyes, S (snowflake) (Study Day 28): 87.5%
- Number of Eyes Observed, + (vacuole) (Study Day 28): 0 eyes
- Number of Eyes Observed, - (Normal) (Study Day 28): 0 eyes
- Number of Eyes Observed, N (nuclear cataract) (Study Day 28): 3 eyes
- Number of Eyes Observed, S (snowflake) (Study Day 28): 21 eyes
- Number of Eyes Observed, ± (Study Day 28): 0 eyes
- % of Total Eyes, + (vacuole) (Study Day 30): 0%
- % of Total Eyes, - (Normal) (Study Day 30): 0%
- % of Total Eyes, N (nuclear cataract) (Study Day 30): 16.7%
- % of Total Eyes, S (snowflake) (Study Day 30): 83.3%
- Number of Eyes Observed, + (vacuole) (Study Day 30): 0 eyes
- Number of Eyes Observed, - (Normal) (Study Day 30): 0 eyes
- Number of Eyes Observed, N (nuclear cataract) (Study Day 30): 4 eyes
- Number of Eyes Observed, S (snowflake) (Study Day 30): 20 eyes
- Number of Eyes Observed, ± (Study Day 30): 0 eyes
- inhibitory capacity relative to diastereomeric mixture of 6-sulfinyl derivative (fold greater): 1.5
- time to vacuole formation, 0.0025% methylthio versus 0.01% sulfinyl (methylthio 0.0025%, sulfinyl 0.01% in diet): not different from each other

Source: patent publication US4464385A, “Treatment of diabetic complications with hydantoins” (Alcon Laboratories, Inc., priority 1982, dated 1984)
